In ChEMBL document CHEMBL1201862, “PubChem BioAssay data set” (2004):
Active and inactive are the calls of the source.

What was measured:
[1] = target: T1, Corticotropin-releasing factor receptor 2/Corticotropin-releasing factor-binding protein (Homo sapiens, UniProt P24387+Q13324); experiment: activators of CRF receptor 2 with binding protein – uHTS hits, confirmation (AID 602473); type: functional; details: read-out: EC50_Mean
T1 sequence (Q13324 whole entry): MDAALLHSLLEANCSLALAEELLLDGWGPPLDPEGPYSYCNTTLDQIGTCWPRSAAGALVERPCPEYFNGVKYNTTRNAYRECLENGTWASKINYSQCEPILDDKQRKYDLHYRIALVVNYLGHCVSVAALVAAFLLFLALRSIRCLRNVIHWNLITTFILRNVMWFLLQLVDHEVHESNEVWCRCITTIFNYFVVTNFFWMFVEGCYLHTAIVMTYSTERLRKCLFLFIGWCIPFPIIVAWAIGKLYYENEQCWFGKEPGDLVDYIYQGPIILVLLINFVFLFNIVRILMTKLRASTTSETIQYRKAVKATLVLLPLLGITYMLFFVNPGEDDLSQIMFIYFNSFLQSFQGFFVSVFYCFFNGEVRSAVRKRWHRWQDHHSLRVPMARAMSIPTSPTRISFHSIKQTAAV
T1 sequence (P24387 whole entry): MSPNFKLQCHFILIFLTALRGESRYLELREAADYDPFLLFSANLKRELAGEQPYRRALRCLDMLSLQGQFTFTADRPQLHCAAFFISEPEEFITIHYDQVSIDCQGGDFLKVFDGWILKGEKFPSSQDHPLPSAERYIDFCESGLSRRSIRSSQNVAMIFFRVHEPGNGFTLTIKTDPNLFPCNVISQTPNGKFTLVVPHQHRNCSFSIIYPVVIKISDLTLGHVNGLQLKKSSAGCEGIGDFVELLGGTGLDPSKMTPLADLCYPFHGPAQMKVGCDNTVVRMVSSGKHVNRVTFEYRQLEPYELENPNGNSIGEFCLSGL

[2] = loss of viability in HepG2 cells – cell-based, CellTiter-Glo, cherry-picked, cytotoxicity control for Shn3 inhibitor project, dose response (AID 624134); type: functional
[3] = HepG2 cell cytotoxicity, dose response, cytotoxicity control for non-replicating M. tuberculosis project (AID 489018); type: functional; details: Mycobacterium tuberculosis
[4] = Vero E6 cell cytotoxicity, dose response, cytotoxicity control for non-replicating M. tuberculosis project, secondary assay (AID 492998); type: functional, VeroE6; details: Vero C1008
[5] = reduction of Shn3 3'UTR-driven luciferase in osteoblasts – cell-based, Clone20 osteoblasts, firefly luciferase, cherry-picked, dose response (AID 624132); type: functional;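 further: firefly luciferase luminescence from reporter carrying the Shn3 3'UTR in osteoblasts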
cells [6] = type: functional
[7] = MIN6 cell viability loss – mouse insulinoma, cytotoxicity control, dose response (AID 2122); type: functional;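 further: confirmatory high-throughput counterscreen run to flag cytotoxic compounds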
[8] = decrease of insulin promoter-GFP reporter – imaging, high-content screening, mouse beta cells (AID 1628); type: functional; details: MIN6
[9] = THP-1 cell cytotoxicity, dose response, cytotoxicity control for non-replicating M. tuberculosis project (AID 489025); type: functional
[10] = target: T1, Corticotropin-releasing factor receptor 2/Corticotropin-releasing factor-binding protein; experiment: Dose Response confirmation of uHTS hits for small molecule antagonists of the CRF-binding protein and CRF-R2 receptor complex.; type: functional; details: read-out: IC50_Mean
[11] = non-specific 3'UTR reporter inhibition in Clone20-Shn3RL – cell-based, Renilla luciferase, cherry-picked, counter-screen for Shn3 inhibitor project, dose response (AID 624133); type: functional
[12] = target: Peroxisome proliferator-activated receptor gamma/Nuclear receptor coactivator 2 (Homo sapiens, UniProt P37231); experiment: (§1) TR-FRET dose response biochemical High Throughput Screening assay for agonists of the steroid receptor coactivator 2 (SRC-2) recruitment by the peroxisome proliferator-activated receptor gamma (PPAR gamma): non-selective agonists. [Related pubchem assays: 1297, 1032 ]; type: functional
[13] = target: Peroxisome proliferator-activated receptor gamma/Nuclear receptor coactivator 3 (Homo sapiens, UniProt P37231); experiment: as §1, with “3 (SRC-3)” for “2 (SRC-2)”, “1301 (Confirmation screen.), 1048 (Primary screen.)]” for “1297, 1032 ]”; type: functional
[14] = target: Peroxisome proliferator-activated receptor gamma/Nuclear receptor coactivator 1 (Homo sapiens, UniProt P37231); experiment: as §1, with “1 (SRC-1)” for “2 (SRC-2)”, “assays (depositor defined):AID1300, AID1808, AID504735, AID631]” for “assays: 1297, 1032 ]”; type: protein assay
[15] = target: Mitogen-activated protein kinase 10 (Homo sapiens, UniProt P53779); experiment: Dose response biochemical screening assay for inhibitors of c-Jun N-Terminal Kinase 3 (JNK3). [Related pubchem assays: 746 ]
cells [16] = experiment: cells
Major prion protein = Major prion protein (Homo sapiens, UniProt P04156); type: functional, cell-based
Cytochrome P450 3A4 = Cytochrome P450 3A4 (Homo sapiens, UniProt P08684);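 further: CYP3A4 tested as one member of a cytochrome P450 panel screen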
[17] = target: T2, Heat shock factor protein 1 (Mus musculus, UniProt P38532); experiment: enhancement of HSF1-driven luciferase signal – cell-based, NIH3T3, luminescence, dose retest, confirmation (AID 435004); type: functional;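 further: stress induced by proteasome inhibitor MG132 added 30 min after compound; luciferase reporter driven by HSF1 response element in NIH3T3 cells; actives raise luminescence as potentiators of the MG132 stress response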
T2 sequence (P38532 whole entry): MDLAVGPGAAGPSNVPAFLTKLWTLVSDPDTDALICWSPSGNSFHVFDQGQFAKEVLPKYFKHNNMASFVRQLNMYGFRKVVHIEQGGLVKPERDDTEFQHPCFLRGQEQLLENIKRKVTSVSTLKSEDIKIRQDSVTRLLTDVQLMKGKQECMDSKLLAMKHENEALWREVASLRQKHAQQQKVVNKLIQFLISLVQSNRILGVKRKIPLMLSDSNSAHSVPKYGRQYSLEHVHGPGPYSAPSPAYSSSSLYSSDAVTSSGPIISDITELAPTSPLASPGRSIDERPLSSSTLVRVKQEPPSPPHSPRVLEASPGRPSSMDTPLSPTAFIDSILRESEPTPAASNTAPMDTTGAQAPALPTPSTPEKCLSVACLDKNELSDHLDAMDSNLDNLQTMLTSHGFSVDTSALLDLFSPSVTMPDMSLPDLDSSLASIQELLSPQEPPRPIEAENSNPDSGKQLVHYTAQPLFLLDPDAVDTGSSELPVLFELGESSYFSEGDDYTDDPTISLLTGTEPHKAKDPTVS

Cytochrome P450 2D6 = Cytochrome P450 2D6 (Homo sapiens, UniProt P10635);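 further: CYP2D6 member of a cytochrome P450 panel assay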
Cytochrome P450 1A2 = target: T3, Cytochrome P450 1A2 (Homo sapiens, UniProt P05177);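 further: PubChem cytochrome P450 panel assay, CYP1A2 panel member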
T3 sequence (P05177 whole entry): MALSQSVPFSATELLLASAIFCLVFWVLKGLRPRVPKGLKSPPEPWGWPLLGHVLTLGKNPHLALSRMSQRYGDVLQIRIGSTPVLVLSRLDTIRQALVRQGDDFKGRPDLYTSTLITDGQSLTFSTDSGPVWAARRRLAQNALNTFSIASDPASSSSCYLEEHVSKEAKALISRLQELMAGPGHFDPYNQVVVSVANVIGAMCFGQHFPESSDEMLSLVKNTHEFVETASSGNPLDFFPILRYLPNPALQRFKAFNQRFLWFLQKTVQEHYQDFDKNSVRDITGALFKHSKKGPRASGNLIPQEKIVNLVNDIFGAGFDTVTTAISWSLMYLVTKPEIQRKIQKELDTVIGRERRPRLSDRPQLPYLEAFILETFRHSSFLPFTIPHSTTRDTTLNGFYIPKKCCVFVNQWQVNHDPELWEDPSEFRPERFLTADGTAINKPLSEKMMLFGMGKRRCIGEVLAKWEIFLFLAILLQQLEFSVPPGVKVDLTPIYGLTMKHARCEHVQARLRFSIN

HEK293 [18] = experiment: cells; type: functional, cell-based; details: Homo sapiens
HEK293 [19] = experiment: cells; type: functional, cell-based; details: Homo sapiens; remark: listed apart in the source
HEK293 [20] = experiment: NOD2 signaling inhibitors in MDP-stimulated cells, cell-based, uHTS, luminescence (AID 2001); type: functional; details: Homo sapiens
[21] = HEK-293T viability loss after treatment – luminescence, T-cell screen hits, cytotoxicity control for TCR NF-kB inhibitor project, dose response (AID 489026); type: functional, cell-based;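 further: cells exposed to compound about 14 hours before the viability readout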
INS1 = experiment: INS-1E survival protection against cytokine death – cell-based, luminescence, retest, dose response (AID 449756); type: functional; details: Rattus norvegicus;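 further: cell death triggered by IL-1 beta plus TNF-alpha plus IFN-gamma mixture; protective hits raise ATP signal compared with cytokine alone wells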
HEK293 [22] = experiment: inhibition of NOD1-driven NF-kB reporter – cell-based, luminescence, uHTS, primary screen (AID 1578); type: functional; details: Homo sapiens
Bcl-2-related protein A1 = target: T4, Bcl-2-related protein A1 (Mus musculus, UniProt Q07440); type: functional;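 further: confirmatory dose–response counterscreen on Bfl-1, used to check hits from a UBC13 polyubiquitin inhibitor campaign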
T4 sequence (Q07440 whole entry): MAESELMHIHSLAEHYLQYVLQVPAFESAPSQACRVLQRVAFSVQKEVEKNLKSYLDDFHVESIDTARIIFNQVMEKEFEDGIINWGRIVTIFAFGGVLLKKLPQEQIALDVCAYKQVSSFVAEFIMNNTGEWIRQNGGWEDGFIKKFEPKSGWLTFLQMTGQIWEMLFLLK

[23] = viability of PTEN-deleted HCT116 cells – cell-based, HCT116 PTEN knockout, dose response (AID 1047); type: functional;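 further: HCT116 colon tumor cells with PTEN knocked out; cells exposed to compound for 60 hours before readout; potency for loss of cell viability measured by luminescence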
[24] = target: T5, Ubiquitin-conjugating enzyme E2 N (Homo sapiens, UniProt P61088); type: functional
T5 sequence (P61088 whole entry): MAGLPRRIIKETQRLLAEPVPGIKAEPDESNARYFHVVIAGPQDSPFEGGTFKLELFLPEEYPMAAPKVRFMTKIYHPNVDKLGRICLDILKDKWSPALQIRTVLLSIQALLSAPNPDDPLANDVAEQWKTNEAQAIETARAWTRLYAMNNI

[25] = viability of uninfected HEp-2 cells – cell-based, HTS, cytotoxicity control for RSV inhibitor project, dose response (AID 2410); type: functional; details: human respiratory syncytial virus
[26] = target: T6, DNA repair protein RAD52 homolog (Homo sapiens, UniProt P43351); type: functional, biochemical
T6 sequence (P43351 whole entry): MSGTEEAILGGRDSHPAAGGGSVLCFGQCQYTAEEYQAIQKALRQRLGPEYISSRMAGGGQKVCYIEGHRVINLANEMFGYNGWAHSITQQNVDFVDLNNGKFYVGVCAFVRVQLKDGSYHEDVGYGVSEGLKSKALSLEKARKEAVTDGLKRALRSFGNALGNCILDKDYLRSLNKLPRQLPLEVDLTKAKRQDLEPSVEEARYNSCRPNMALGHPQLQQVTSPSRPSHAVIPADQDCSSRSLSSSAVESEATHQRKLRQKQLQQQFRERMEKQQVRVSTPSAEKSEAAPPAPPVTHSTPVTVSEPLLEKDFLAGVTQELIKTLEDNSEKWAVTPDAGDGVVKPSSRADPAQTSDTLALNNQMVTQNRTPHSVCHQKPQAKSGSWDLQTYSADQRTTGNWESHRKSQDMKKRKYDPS

[27] = viability of HCT116 lacking mutant beta-catenin – cell-based, human colon tumor, dose response (AID 1045); type: functional;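 further: HCT116 colon tumor cells with beta catenin knocked out; cells exposed to compound for 60 hours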
[28] = target: T5, Ubiquitin-conjugating enzyme E2 N; type: functional; remark: listed apart in the source
[29] = target: Heat shock protein HSP 90-alpha (Homo sapiens, UniProt P07900); type: functional, organism-based
SUMO E1/E2 = SUMO E1/E2 (Homo sapiens, UniProt P63279+Q9UBE0+Q9UBT2); experiment: SAR analysis of SUMOylation using HTRF in an in-Vitro dose response assay. [Related pubchem assays (depositor defined):AID2006, AID2011, AID2018, AID2069, AID2658]; type: functional

Cc1cc(C)nc(N=C(N)Nc2ccc(-c3ccccc3)cc2)n1
EC50 [1]: 31.7 µM (active)
AC50 [2]: > 70 µM (inactive)
CC50 [3]: 18.2 µM (active)
CC50 [4]: > 20 µM (active)
AC50 [5]: 4.45 µM (active)
IC50 (cells [6]): 39 µM (active)
IC50 [7]: 1.36 µM (active)
IC50 [8]: 1.56 µM (active)
CC50 [9]: 9.89 µM (active)
IC50 [10]: > 47.1 µM (inactive)
AC50 [11]: 22.6 µM (active)

COc1ccc(Cl)cc1-c1nnc(S)o1
EC50 [12]: 3.4 µM (active)
EC50 [13]: > 79.4 µM (not active)
EC50 [14]: 3.67 µM (active)
IC50 [15]: 16.2 µM (not active)
IC50 (cells [16]): > 138 µM (inactive)
IC50 (Major prion protein): 2.08 µM (active)

COCC(=O)N1CCN(c2ccc([N+](=O)[O-])cc2)CC1
AC50 (Cytochrome P450 3A4): inconclusive

Cn1c(=O)cc(SCC(=O)N2CCOCC2)c2ccc(Cl)cc21
EC50 [12]: > 79.4 µM (not active)
EC50 [13]: > 79.4 µM (not active)
EC50 [14]: > 79.4 µM (inactive)
EC50 [17]: > 260 µM (inactive)

S=C(NCCC1=CCCCC1)NCc1ccco1
IC50 [7]: 2.64 µM (active)
IC50 [8]: 2.95 µM (active)

COCCCNC(=O)c1ccc2c(=O)n(CC3CCCO3)c(=S)[nH]c2c1 (stereo not drawn)
AC50 (Cytochrome P450 2D6): 0.178 µM (inconclusive)
AC50 (Cytochrome P450 3A4): inconclusive
AC50 (Cytochrome P450 1A2): 20 µM (inconclusive)

CCn1nc(C)c(CNC(=O)c2ccc(OC3CCN(Cc4ccccn4)CC3)cc2)c1C
IC50 (HEK293 [18]): 13.8 µM (active)
IC50 (HEK293 [19]): 4.94 µM (active)
IC50 (HEK293 [20]): 9.64 µM (active)
IC50 [21]: > 80 µM (inactive)
AC50 (INS1): 3.87 µM (active)
EC50 (HEK293 [22]): 2.57 µM (active)

Cc1ccc(C)c(OCC(O)CN2CCN(CCN3C(=O)c4cccc5cccc(c45)C3=O)CC2)c1 (stereo not drawn)
IC50 (Bcl-2-related protein A1): > 20 µM (inactive)
EC50 [23]: 6.21 µM (active)
IC50 [24]: 7.55 µM (active)
CC50 [25]: 15.8 µM (active)
AC50 [26]: 7.35 µM (active)
EC50 [27]: 3.71 µM (active)
IC50 [28]: 9.34 µM (active)

CCN(CC)S(=O)(=O)c1cccc(NC(=O)c2ccc(Br)cc2)c1
IC50 (HEK293 [18]): 14.1 µM (active)
IC50 (HEK293 [19]): 10.1 µM (active)
IC50 (HEK293 [20]): 7.75 µM (active)
EC50 (HEK293 [22]): 11.6 µM (active)
AC50 [29]: 3.55 µM (active)

O=C1c2oc3ccccc3c(=O)c2C(c2ccccc2)N1c1nccs1 (stereo not drawn)
IC50 (SUMO E1/E2): 22.4 µM (active)

CCCN(CCc1ccccc1)[C@H]1CCc2c(O)cccc2C1
AC50 (Cytochrome P450 3A4): inconclusive
AC50 (Cytochrome P450 1A2): 12.6 µM (inconclusive)
